Measurements as given in PubChem BioAssay (NCI).
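At the GI50, growth is halved. TGI denotes the concentration required for complete inhibition of growth.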

Experiments:
Experiment in all cases: DTP human tumour cell line panel, 384-well format
[1] = system: IGROV1 ovarian
[2] = system: OVCAR-8 ovarian
[3] = system: A549 NSCLC
[4] = system: HOP-92 NSCLC
[5] = system: SK-MEL-28 melanoma
[6] = system: PC-3 prostate
[7] = system: CCRF-CEM leukemia
[8] = system: MDA-MB-435 melanoma
[9] = system: SNB-75 CNS
[10] = system: SN12C renal
[11] = system: RXF 393 renal
[12] = system: SF-539 CNS
[13] = system: KM12 colon
[14] = system: NCI-H322M lung
[15] = system: NCI-H23 lung
[16] = system: COLO 205 colon
[17] = system: M14 melanoma
[18] = system: SF-268 CNS
[19] = system: ACHN renal
[20] = system: HOP-62 NSCLC
[21] = system: SW-620 colon
[22] = system: SNB-19 CNS
[23] = system: BT-549 breast
[24] = system: DU-145 prostate
[25] = system: SR leukemia
[26] = system: TK-10 renal
[27] = system: OVCAR-3 ovarian
[28] = system: T-47D breast
[29] = system: MOLT-4 leukemia
[30] = system: OVCAR-5 ovarian
[31] = system: SK-MEL-5 melanoma
[32] = system: CAKI-1 renal
[33] = system: MCF7 breast
[34] = system: UACC-62 melanoma
[35] = system: RPMI-8226 leukemia
[36] = system: HT29 colon
[37] = system: MDA-MB-468 breast
[38] = system: EKVX NSCLC
[39] = system: NCI/ADR-RES ovarian
[40] = system: NCI-H522 lung
[41] = system: U251 glioblastoma
[42] = system: 786-0 renal
[43] = system: HL-60(TB) leukemia
[44] = system: OVCAR-4 ovarian
[45] = system: MALME-3M melanoma
[46] = system: SK-MEL-2 melanoma
[47] = system: HCC-2998 colon
[48] = system: MDA-MB-231 breast
[49] = system: NCI-H460 NSCLC
[50] = system: HS 578T breast
[51] = system: UACC-257 melanoma
[52] = system: A498 renal
[53] = system: HCT-15 colon
[54] = system: SK-OV-3 ovarian
[55] = system: NCI-H226 lung
[56] = system: SF-295 CNS

## CC(C)n1nc(-c2ccc3oc(N)nc3c2)c2c(N)ncnc21
[1]
  GI50: < 10 nM
  TGI: 26.6 nM
[2]
  GI50: 40.1 nM
  TGI: 858 nM
[3]
  GI50: 17.9 nM
  TGI: 259 nM
[4]
  GI50: 20.2 nM
  TGI: 190 nM
[5]
  GI50: 18.7 nM
  TGI: 83.9 nM
[6]
  GI50: < 10 nM
  TGI: 85.3 nM
[7]
  GI50: 16.1 nM
  TGI: 258 nM
[8]
  GI50: 26.4 nM
  TGI: 152 nM
[9]
  GI50: < 10 nM
  TGI: 42 nM
[10]
  GI50: 10.5 nM
  TGI: 1450 nM
[11]
  GI50: 12.5 nM
  TGI: 50.3 nM
[12]
  GI50: 32.8 nM
  TGI: 626 nM
[13]
  GI50: 21.7 nM
  TGI: 1840 nM
[14]
  GI50: 14.2 nM
  TGI: 2270 nM
[15]
  GI50: 74.3 nM
  TGI: 1630 nM
[16]
  GI50: 12.6 nM
  TGI: 64 nM
[17]
  GI50: 14.7 nM
  TGI: 165 nM
[18]
  GI50: 40.8 nM
  TGI: 579 nM
[19]
  GI50: 36.2 nM
  TGI: 347 nM
[20]
  GI50: 12.4 nM
  TGI: 119 nM
[21]
  GI50: 113 nM
  TGI: 3140 nM
[22]
  GI50: 69.6 nM
  TGI: 10600 nM
[23]
  GI50: 12.1 nM
  TGI: 56.9 nM
[24]
  GI50: 35.4 nM
  TGI: 2680 nM
[25]
  GI50: 17.3 nM
  TGI: 63.5 nM
[26]
  GI50: 11.6 nM
  TGI: 109 nM
[27]
  GI50: 22.2 nM
  TGI: 1160 nM
[28]
  GI50: < 10 nM
  TGI: < 10 nM
[29]
  GI50: 17.7 nM
  TGI: 726 nM
[30]
  GI50: 24.5 nM
  TGI: 603 nM
[31]
  GI50: 13.8 nM
  TGI: 45.8 nM
[32]
  GI50: 14.7 nM
  TGI: 82.8 nM
[33]
  GI50: < 10 nM
  TGI: 7120 nM
[34]
  GI50: 18.4 nM
  TGI: 78 nM
[35]
  GI50: < 10 nM
  TGI: < 10 nM
[36]
  GI50: 44.5 nM
  TGI: 10400 nM
[37]
  GI50: < 10 nM
  TGI: 15.2 nM
[38]
  GI50: 18.2 nM
  TGI: 122 nM
[39]
  GI50: 35.9 nM
  TGI: 402 nM
[40]
  GI50: < 10 nM
  TGI: 32.6 nM
[41]
  GI50: 66.2 nM
  TGI: 7220 nM
[42]
  GI50: 44.8 nM
  TGI: 1510 nM
[43]
  GI50: 326 nM
  TGI: 3000 nM
[44]
  GI50: 18.5 nM
  TGI: 56.7 nM
[45]
  GI50: < 10 nM
  TGI: < 10 nM
[46]
  GI50: 53.7 nM
  TGI: 92.1 nM
[47]
  GI50: 15.3 nM
  TGI: 5310 nM
[48]
  GI50: 18.7 nM
  TGI: 681 nM
[49]
  GI50: < 10 nM
  TGI: 1870 nM
[50]
  GI50: < 10 nM
  TGI: 26.4 nM
[51]
  GI50: 51.4 nM
  TGI: 523 nM
[52]
  GI50: < 10 nM
  TGI: 22 nM
[53]
  GI50: < 10 nM
  TGI: 11600 nM
[54]
  GI50: < 10 nM
  TGI: 42 nM
[55]
  GI50: 10.2 nM
  TGI: 62.7 nM
[56]
  GI50: 27.8 nM
  TGI: 380 nM
